According to ChEMBL document CHEMBL1133198, “Prenylated xanthones as potential P-glycoprotein modulators” (Bioorg Med Chem Lett, 2000):

Assay: Binding affinity of compound to P-glycoprotein recombinant domain of prenylated xanthones was evaluated

Question: With `COc1cc2oc3ccc(OC)c(OC)c3c(=O)c2c(O)c1CC=C(C)C` as the compound, how does the Kd read?
Answer: 0.39 µM

Question: With `COc1cc(O)c2c(=O)c3c(OC)c(OC)ccc3oc2c1CC=C(C)C` as the compound, how does the Kd read?
Answer: 0.59 µM

Question: With `COCCOCOc1cc(O)c2c(=O)cc(-c3ccccc3)oc2c1CC=C(C)C` as the compound, how does the Kd read?
Answer: 0.1 µM

Question: For `C=CC(C)(C)c1c(OCOCCOC)cc2oc(-c3ccccc3)cc(=O)c2c1O`, which Kd is on record?
Answer: 0.1 µM

Question: For `COCCOCOc1cc(O)c2c(=O)cc(-c3ccccc3)oc2c1`, which Kd is on record?
Answer: 8.05 µM

Question: With `C=CC(C)(C)c1c(OC)cc2oc3ccc(OC)c(OC)c3c(=O)c2c1O` as the compound, how does the Kd read?
Answer: 0.25 µM

Question: Which Kd does the source give for `COCCOCOc1cc(OCC=C(C)C)c2c(=O)cc(-c3ccccc3)oc2c1` here?
Answer: 6.1 µM

Question: For `COc1cc(OCC=C(C)C)c2c(=O)c3c(OC)c(OC)ccc3oc2c1`, which Kd is on record?
Answer: 13.9 µM

Question: With `COc1cc2oc3ccc(OC)c(OC)c3c(=O)c2c2c1C(C)(C)C(C)O2` (stereo not given) as the compound, how does the Kd read?
Answer: 24.8 µM

Question: For `COc1cc(O)c2c(=O)c3c(OC)c(OC)ccc3oc2c1` [DECUSSATIN], which Kd is on record?
Answer: 28.8 µM
